Assay results taken from PMC3758588, “Development of an Ultrasensitive Immunoassay for Detecting Tartrazine” (Sensors (Basel, Switzerland), 2013).

System: monoclonal antibody 1F3 (mAb 1F3)
Assay: indirect competitive ELISA against Tar-OVA coating antigen
Format: binding, Mus musculus

SMILES: O=C(O)c1nn(-c2ccc(S(=O)(=O)O)cc2)c(O)c1/N=N/c1ccc(S(=O)(=O)O)cc1 [Tartrazine, trisodium 5-hydroxy-1-(4-sulfonatophenyl)-4-(4-sulfonatophenylazo)-H-pyrazol-3-carboxylate]
- IC50: 0.105 ng/mL
